According to US4335249A, “Herbicidal diphenyl ethers, sulfides, sulfoxides and sulfones” (Rohm and Haas Company, priority 1976, dated 1982):

How the values were obtained:
Type in all cases: in vivo
[1] = system: downybrome (Bromus tectorum); test: Postemergence herbicidal activity, downybrome; details: Post
How it was run: (§1)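 Seeds were sown in soil flats and sprayed either right after planting (preemergence) or two weeks after germination (postemergence). Compound in acetone diluted with water was applied at a 50 gal/acre carrier volume at rates in lb/A. About two weeks later, average percent control was scored as percent of plants killed.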

[2] = system: barnyardgrass (Echinochloa crusgalli); test: Preemergence herbicidal activity, barnyardgrass; details: Pre
How it was run: (§2)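 Control of the weed species is the read-out, following spray application at a given rate in lb/A. Flats of seeded soil received treatment either directly upon planting or, for postemergence, two weeks after seedlings emerged. Spray carrier was aqueous acetone at 50 gallons per acre equivalent.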

[3] = system: tomato (Lycopersicon esculentum); test: Preemergence herbicidal activity, tomato; details: Pre
How it was run: as §1

marigold (Tagetes spp.) [4] = test: Postemergence herbicidal activity, marigold
How it was run: as §1

[5] = system: yellow nutsedge (Cyperus esculentus); test: Preemergence herbicidal activity, yellow nutsedge
How it was run: as §1

[6] = system: cocklebur (Xanthium pensylvanicum); test: Preemergence herbicidal activity, cocklebur
How it was run: as §1

[7] = system: velvetleaf (Abutilon theophrasti); test: Preemergence herbicidal activity, velvetleaf; details: Pre
How it was run: as §1

[8] = system: cocklebur (Xanthium pensylvanicum); test: Postemergence herbicidal activity, cocklebur
How it was run: as §1

[9] = system: morningglory (Ipomoca spp.); test: Preemergence herbicidal activity, morningglory
How it was run: as §1

[10] = system: downybrome (Bromus tectorum); test: Preemergence herbicidal activity, downybrome; details: Pre
How it was run: as §1

foxtail (Setaria spp.) [11] = test: Postemergence herbicidal activity, foxtail; details: Post
How it was run: as §1

marigold (Tagetes spp.) [12] = test: Preemergence herbicidal activity, marigold
How it was run: as §1

[13] = system: morningglory (Ipomoca spp.); test: Postemergence herbicidal activity, morningglory
How it was run: as §1

[14] = system: tomato (Lycopersicon esculentum); test: Postemergence herbicidal activity, tomato; details: Post
How it was run: as §1

[15] = system: velvetleaf (Abutilon theophrasti); test: Postemergence herbicidal activity, velvetleaf
How it was run: as §2

foxtail (Setaria spp.) [16] = test: Preemergence herbicidal activity, foxtail; details: Pre
How it was run: as §1

wild oats (Avena fatua) [17] = test: Preemergence herbicidal activity, wild oats; details: Pre
How it was run: as §1

wild oats (Avena fatua) [18] = test: Postemergence herbicidal activity, wild oats; details: Post
How it was run: as §1

[19] = system: barnyardgrass (Echinochloa crusgalli); test: Postemergence herbicidal activity, barnyardgrass; details: Post
How it was run: as §2

[20] = system: yellow nutsedge (Cyperus esculentus); test: Postemergence herbicidal activity, yellow nutsedge
How it was run: as §1

[21] = Bromus tectorum, post-emergence, 336 h, 2 lb/A
[22] = Echinochloa crus-galli, pre-emergence, 336 h, 2 lb/A
[23] = Solanum lycopersicum, pre-emergence, 336 h, 2 lb/A
[24] = Cyperus, pre-emergence, 336 h, 2 lb/A
[25] = Xanthium strumarium, pre-emergence, 336 h, 2 lb/A
[26] = Abutilon theophrasti, pre-emergence, 336 h, 2 lb/A
[27] = Xanthium strumarium, post-emergence, 336 h, 2 lb/A
[28] = Ipomoea, pre-emergence, 336 h, 2 lb/A
[29] = Bromus tectorum, pre-emergence, 336 h, 2 lb/A
[30] = Setaria, post-emergence, 336 h, 2 lb/A
[31] = Ipomoea, post-emergence, 336 h, 2 lb/A
[32] = Solanum lycopersicum, post-emergence, 336 h, 2 lb/A
[33] = Abutilon theophrasti, post-emergence, 336 h, 2 lb/A
[34] = Setaria, pre-emergence, 336 h, 2 lb/A
[35] = Avena fatua, pre-emergence, 336 h, 2 lb/A, read-out: % control, Wild oat
[36] = Avena fatua, post-emergence, 336 h, 2 lb/A, read-out: % control, Wild oat
[37] = Echinochloa crus-galli, post-emergence, 336 h, 2 lb/A
[38] = Cyperus, post-emergence, 336 h, 2 lb/A

Row | SMILES | pest or weed control at 2241.7 g/ha [1, 21] [%] | pest or weed control at 2241.7 g/ha [2, 22] [%] | pest or weed control at 2241.7 g/ha [3, 23] [%] | pest or weed control at 2241.7 g/ha (marigold (Tagetes spp.) [4]; post-emergence, 336 h, 2 lb/A) [%] | pest or weed control at 2241.7 g/ha [5, 24] [%] | pest or weed control at 2241.7 g/ha [6, 25] [%] | pest or weed control at 2241.7 g/ha [7, 26] [%] | pest or weed control at 2241.7 g/ha [8, 27] [%] | pest or weed control at 2241.7 g/ha [9, 28] [%] | pest or weed control at 2241.7 g/ha [10, 29] [%] | pest or weed control at 2241.7 g/ha (foxtail (Setaria spp.) [11]; [30]) [%] | pest or weed control at 2241.7 g/ha (marigold (Tagetes spp.) [12]; pre-emergence, 336 h, 2 lb/A) [%] | pest or weed control at 2241.7 g/ha [13, 31] [%] | pest or weed control at 2241.7 g/ha [14, 32] [%] | pest or weed control at 2241.7 g/ha [15, 33] [%] | pest or weed control at 2241.7 g/ha (foxtail (Setaria spp.) [16]; [34]) [%] | pest or weed control at 2241.7 g/ha (wild oats (Avena fatua) [17]; [35]) [%] | pest or weed control at 2241.7 g/ha (wild oats (Avena fatua) [18]; [36]) [%] | pest or weed control at 2241.7 g/ha [19, 37] [%] | pest or weed control at 2241.7 g/ha [20, 38] [%] | further results
1 | CCOC(=O)C(C)Oc1ccc(Sc2ccc(C(F)(F)F)cc2Cl)cc1 (stereo not shown) [Example 3, Ethyl 2-[4-(2-Chloro-4-trifluoromethylphenylthio)phenoxy] propionate] | 90 | 95 | 0 | 50 | 0 | 0 | 0 | 20 | 0 | 40 | 100 | 0 | 50 | 70 | 70 | 100 | 30 | 99 | 70 | 66 | –
2 | CCOC(=O)COc1ccc(Oc2ccc(C(F)(F)F)cc2Cl)cc1 [Example 11] | 0 | 0 | 0 | 0 | 0 | 0 | 0 | 50 | 0 | 0 | 30 | 0 | 30 | 0 | 20 | 30 | 0 | 40 | 20 | 0 | –
3 | CC(Oc1ccc(Oc2ccc(C(F)(F)F)cc2)cc1)C(=O)O (stereo not shown) [Example 29] | 80 | 100 | 0 | 30 | 0 | 0 | 0 | 0 | 0 | 99 | 100 | 0 | 0 | 30 | 0 | 100 | 95 | 100 | 100 | 0 | –
4 | CCOC(=O)C(C)Oc1ccc(Sc2ccc(C(F)(F)F)cc2[N+](=O)[O-])cc1 (stereo not shown) [Example 48, Ethyl 2-[4-(2-nitro-4-trifluoromethylphenylthio)phenoxy] propionate] | 0 | 95 | 0 | 0 | 0 | 0 | 0 | 0 | 0 | 30 | 20 | 0 | 0 | 0 | 0 | 95 | 0 | 80 | 60 | 0 | –
5 | CCOC(=O)C(C)Oc1ccc(Oc2ccc(C(F)(F)F)cc2Cl)cc1C (stereo not shown) [Example 10] | 0 | 0 | 0 | 0 | 0 | 0 | 0 | 40 | 0 | 0 | 0 | 0 | 80 | 30 | 40 | 0 | 0 | 0 | 0 | 0 | –
6 | CCOC(=O)C(C)Oc1ccc(Sc2ccccc2C(F)(F)F)cc1 (stereo not shown) [Example 44, ethyl 2-(4-(2-trifluoromethylphenylthio)phenoxy) propionate] | – | – | – | – | – | – | – | – | – | – | – | – | – | – | – | – | – | – | – | – | pest or weed control at 4483.4 g/ha ([1]; Bromus tectorum, post-emergence, 336 h, 4 lb/A): 0%; pest or weed control at 8966.8 g/ha ([2]; Echinochloa crus-galli, pre-emergence, 336 h, 8 lb/A): 80%; pest or weed control at 8966.8 g/ha ([3]; Solanum lycopersicum, pre-emergence, 336 h, 8 lb/A): 0%; pest or weed control at 4483.4 g/ha (marigold (Tagetes spp.) [4]; post-emergence, 336 h, 4 lb/A): 0%; pest or weed control at 8966.8 g/ha ([5]; Cyperus, pre-emergence, 336 h, 8 lb/A): 0%; pest or weed control at 8966.8 g/ha ([6]; Xanthium strumarium, pre-emergence, 336 h, 8 lb/A): 0%; pest or weed control at 8966.8 g/ha ([7]; Abutilon theophrasti, pre-emergence, 336 h, 8 lb/A): 30%; pest or weed control at 4483.4 g/ha ([8]; Xanthium strumarium, post-emergence, 336 h, 4 lb/A): 0%; pest or weed control at 8966.8 g/ha ([9]; Ipomoea, pre-emergence, 336 h, 8 lb/A): 0%; pest or weed control at 8966.8 g/ha ([10]; Bromus tectorum, pre-emergence, 336 h, 8 lb/A): 60%; pest or weed control at 4483.4 g/ha (foxtail (Setaria spp.) [11]; Setaria, post-emergence, 336 h, 4 lb/A): 20%; pest or weed control at 8966.8 g/ha (marigold (Tagetes spp.) [12]; pre-emergence, 336 h, 8 lb/A): 0%; pest or weed control at 4483.4 g/ha ([13]; Ipomoea, post-emergence, 336 h, 4 lb/A): 0%; pest or weed control at 4483.4 g/ha ([14]; Solanum lycopersicum, post-emergence, 336 h, 4 lb/A): 0%; pest or weed control at 4483.4 g/ha ([15]; Abutilon theophrasti, post-emergence, 336 h, 4 lb/A): 20%; pest or weed control at 8966.8 g/ha (foxtail (Setaria spp.) [16]; Setaria, pre-emergence, 336 h, 8 lb/A): 0%; pest or weed control at 8966.8 g/ha (wild oats (Avena fatua) [17]; Avena fatua, pre-emergence, 336 h, 8 lb/A, read-out: % control, Wild oat): 0%; pest or weed control at 4483.4 g/ha (wild oats (Avena fatua) [18]; Avena fatua, post-emergence, 336 h, 4 lb/A, read-out: % control, Wild oat): 0%; pest or weed control at 4483.4 g/ha ([19]; Echinochloa crus-galli, post-emergence, 336 h, 4 lb/A): 0%; pest or weed control at 4483.4 g/ha ([20]; Cyperus, post-emergence, 336 h, 4 lb/A): 0%
7 | CCOC(=O)C(C)Oc1ccc(Oc2ccc(C(F)(F)F)cc2Cl)cc1[N+](=O)[O-] (stereo not shown) [Example 9] | 0 | 0 | 0 | 50 | 0 | 0 | 0 | 40 | 0 | 0 | 0 | 0 | 0 | 90 | 20 | 0 | 0 | 0 | 40 | 0 | –
8 | CC(Oc1ccc(Oc2ccc(C(F)(F)F)cc2Cl)cc1)C(=O)O (stereo not shown) [Example 12] | – | – | – | – | – | – | – | – | – | – | – | – | – | – | – | – | – | – | – | – | % control, Downybrome ([1]; 2 lb/A): 60%; % control, Barnyardgrass ([2]; 2 lb/A): 100%; % control, Tomato ([3]; 2 lb/A): 0%; % control, Marigold (marigold (Tagetes spp.) [4]; Post, 2 lb/A): 0%; % control, Nutsedge ([5]; Pre, 2 lb/A): 0%; % control, Cocklebur ([6]; Pre, 2 lb/A): 0%; % control, Velvetleaf ([7]; 2 lb/A): 0%; % control, Cocklebur ([8]; Post, 2 lb/A): 0%; % control, Morningglory ([9]; Pre, 2 lb/A): 0%; % control, Downybrome ([10]; 2 lb/A): 0%; % control, Foxtail (foxtail (Setaria spp.) [11]; 2 lb/A): 100%; % control, Marigold (marigold (Tagetes spp.) [12]; Pre, 2 lb/A): 0%; % control, Morningglory ([13]; Post, 2 lb/A): 0%; % control, Tomato ([14]; 2 lb/A): 0%; % control, Velvetleaf ([15]; Post, 2 lb/A): 0%; % control, Foxtail (foxtail (Setaria spp.) [16]; 2 lb/A): 100%; % control, Wild oat (wild oats (Avena fatua) [17]; 2 lb/A): 60%; % control, Wild oat (wild oats (Avena fatua) [18]; 2 lb/A): 70%; % control, Barnyardgrass ([19]; 2 lb/A): 100%; % control, Nutsedge ([20]; Post, 2 lb/A): 0%
